≈ marks a conversion by molar mass, not a printed value. Read-outs that look alike come from different tables or passages of the source.
Columns and labels:
[1] = Cytotoxicity (maximum tolerated dose), control tests in 96-well microplates; assay type: cell-based; settings: Table 5; microscopic examination, separately run control tests; read-out: Approx. MTD (dose causing approximately 50% cytotoxic effects in cells)
Source text: (§1) ^b Maximum tolerated dose: That dose causing approximately 50%
(§2) cytotoxic effects in cells, determined by the microscopic examination of
(§3) cells for sloughing, shape alteration, and granularity in separately run
(§4) control tests in 96well microplates.
(§5) The data on acyclovir were gathered from tests run in MRC-5 cells grown under agarose overlay, with plaques read 7 days after virus exposure.

cells = assay: as above; assay type: cell-based; settings: overall, Table 5
Source text: as §1, §2, §3, §4, §5

[2] = system: reverse transcriptase (RT) from Moloney murine leukemia virus (MMLV) or avian myeloblastosis virus (AMV); assay: Reverse transcriptase assay; assay type: biochemical; settings: 1 mM
Protocol: For the reverse transcriptase assay, cloned reverse transcriptase (RT) (Bethesda Research Laboratories) from Moloney murine leukemia virus (MMLV) or avian myeloblastosis virus (AMV) (Seikagaku or Boehringer Mannheim) was used to direct DNA synthesis from a polyribonucleotide template and a oligodeoxynucleotide primer under reaction conditions (Houts, G. E., et al, J Virol (1979) 29:517.)
Reaction mixtures (100 μl) for the assay of MMLV RT consisted of 50 mM Tris-hydrochloride, pH 8.0, 6 mM MgCl2, 40 mM KCl, 100 μg bovine serum albumin per ml, 1 mM dithiothreitol, 0.1 mM polyadenylic acid (Pharmacia, Inc.), 0.1 mM oligo(dT)12-18 (Pharmacia, Inc.), 0.4 mM deoxythymidine triphosphate (dTTP), and 0.1 mM tritiated (93.5 Cl/mmol) dTTP (New England Nuclear). The compounds assayed were added in various concentrations and dilutions at a volume of 10 μl. Results were confirmed by duplicate assays. Dilutions were made using 10% aqueous DMSO. The total activity was measured by spotting on dry Whatman 3 mm filter disks and radioactivity was determined by liquid scintillation techniques. The assay time course was begun by adding 10 units of RT from MMLV or AMV and incubating the reaction at 37° C. […] Disks were dried under a heat lamp and the acid-insoluble product radioactivity was determined by liquid scintillation counting. […]

[3] = system: HSV-1TK+ (Strain McCrae of type 1 herpes); assay: Inhibition of viral CPE, HSV-1TK+ in MA-104 cells; assay type: cell-based
Protocol: (§6) One herpes virus strain employed was Strain McCrae of type 1 herpes (thymidine kinase positive virus) (HSV-1TK^+). This strain was prepared and titered in MA-104 cells and frozen at -90° C. until use. Also used were strain HF (HSV-1TK^-). Strain E194 (HSV-2), NJB strain (MCMV), strain AD169 (HCMV).
(§7) Continuous passaged monkey kidney (MA-104) cells were used for testing of herpes-type virus, with growth medium consisting of Minimum Essential Medium (MEM) supplemented with 0.1% NaHCO3 and […] gentamicin.
(§8) To a 96 well microtiter plate containing an established 24 hour monolayer of cells from which the medium has been decanted was added 0.1 ml of varying (one-half log10) concentrations of test compound, which incubated on the cell 15 minutes, after which 0.1 ml of virus in a concentration of 320 cell culture 50% infectious doses (CCID50)/0.1 ml was added. The plate was covered with plastic wrap and incubated at 37° C. Included with the test were toxicity controls (each concentration of compound+test medium in place of virus), virus controls (virus+test medium in place of compound) and cell controls (test medium in place of compound and virus). The cells were examined microscopically after 72 hours for evidence of cytotoxicity and for viral cytopathic effect (CPE). Vidarabine was run on the same plate in parallel. […] were added to the medium at a concentration of 2000 μg/ml for use as a positive control.
Antiviral activity was determined by observation of inhibition of viral CPE. This activity was expressed by ED50, defined as that dose range of compound causing 50% CPE inhibition.
A Virus Rating (VR) was also determined. VR is a numerical expression of antiviral activity, weighted to take into account any cytotoxicity observed, as discussed by Sidewell et al, Appl Microbiol (1971) 22:797. Generally, a VR of 0.1-0.4 indicates slight antiviral effect, 0.5-0.9 indicates moderate antiviral effect, and ≥1.0 indicates strong antiviral effect.

[4] = system: human cytomegalovirus (strain AD169); assay: Plaque reduction, human cytomegalovirus; assay type: cell-based
Protocol: as §6
^a 50% effective dose, determined from plot of data.
as §5

MA-104 cells = assay: Cytotoxicity controls (maximum tolerated dose) in MA-104 cells; assay type: cell-based, monkey; settings: Table 3 Test 2
Protocol: as §7, §8
*Maximum tolerated dose, μg/ml.

HSV-1TK+ = assay: In vivo guinea pig HSV-1TK+ lesion test, topical solution; settings: guinea pigs; for TK+ (average number of lesions): five days after treatment
Protocol: Compound 2 also was tested in vivo in guinea pigs as an agent against HSV-1TK^+. The animals were inoculated with the virus; 18 hours later Compound 2 at two concentrations (0.4% and 1-2% (saturated) solution in water) was administered, and five days later blister diameters at the point of inoculation were measured. A 5% solution of acyclovir or a 1.4% solution of poly(vinylalcohol) was used as control. Satellite lesions were measured, as well.

[5] = 1-2% (saturated) solution in water

CCOP(=O)(O)CCCOCn1cnc2c(=O)[nH]c(N)nc21 [Compound 2, 9(3'-ethylphosphono-1'-propyloxymethyl)guanine]
CC50 [1]: ~1000 µg/mL (≈ 3020 µM)
cytotoxicity relative to acyclovir (cells): approximately the same
inhibition of reverse transcriptase [2]: 100%
activity against HSV-1TK+ relative to vidarabine [3]: comparable to that of vidarabine
EC50 ([3]; MA104, 72 h, read-out: ED50): < 1 µg/mL
inhibition at 1000 µg/mL ([3]; MA104, read-out: CPE Inhib., Table 3 Test 1, 1000 μg/ml): 100%
VR (Virus Rating) ([3]; Table 3 Test 1, HSV-1TK+): > 2.0
ED50 ([3]; Table 3 Test 2, HSV-1TK+): < 1.0 µg/mL
VR (Virus Rating) ([3]; Table 3 Test 2, HSV-1TK+): > 1.4
No. Plaques ([4]; Experiment No. 1, 32 μg/ml): 5
No. Plaques ([4]; Experiment No. 1, 100 μg/ml): 0
No. Plaques ([4]; Experiment No. 2, 10 μg/ml): 17
No. Plaques ([4]; Experiment No. 2, 32 μg/ml): 6
No. Plaques ([4]; Experiment No. 2, 100 μg/ml): 1
inhibition at 32 µg/mL ([4]; Human betaherpesvirus 5, AD169, read-out: % Reduct., Experiment No. 1, 32 μg/ml): 71%
inhibition at 100 µg/mL ([4]; Human betaherpesvirus 5, AD169, read-out: % Reduct., Experiment No. 1, 100 μg/ml): 100%
inhibition at 10 µg/mL ([4]; Human betaherpesvirus 5, AD169, read-out: % Reduct., Experiment No. 2, 10 μg/ml): 23%
inhibition at 32 µg/mL ([4]; Human betaherpesvirus 5, AD169, read-out: % Reduct., Experiment No. 2, 32 μg/ml): 73%
inhibition at 100 µg/mL ([4]; Human betaherpesvirus 5, AD169, read-out: % Reduct., Experiment No. 2, 100 μg/ml): 96%
EC50 ([4]; Human betaherpesvirus 5, AD169, read-out: Approx. ED50, Experiment No. 2, determined from plot of data): 10 to 32 µg/mL (≈ 30.2 to 96.6 µM)
EC50 ([4]; Human betaherpesvirus 5, AD169, read-out: ED50, human CMV): 10 µg/mL (≈ 30.2 µM)
human CMV-inhibitory effect relative to acyclovir ([4]; overall, Table 5): approximately the same
MTD (Maximum tolerated dose) (MA-104 cells): > 1000 µg/mL
Satellite lesions (HSV-1TK+; 0.4% solution in water): 11
TK+ (average number of lesions) (HSV-1TK+; 0.4% solution in water): 2.1
Satellite lesions (HSV-1TK+; [5]): 6
TK+ (average number of lesions) (HSV-1TK+; [5]): 0.9
activity against HSV TK+ virus in vivo (HSV-1TK+; at least in saturated solution): has activity

Reference: patent US5047533A, “Acyclic purine phosphonate nucleotide analogs” (SRI International, priority 1990, dated 1991)
